Results from PubChem BioAssay (NCI).
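Values below derive from 48-hour exposures of cells grown in 96-well plates, with endpoints linearly interpolated between the two concentrations bracketing the appropriate inhibition level. At the GI50, growth is halved. TGI denotes the concentration required for complete inhibition of growth.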 Where a SMILES comes first, the peptide text is derived from it. The star is where a group is joined. Boc = CC(C)(C)OC(=O)*

Experiments:
Assay in all cases: NCI-60 cell line screen, 48 h
[1] = system: EKVX NSCLC
[2] = system: BT-549 breast
[3] = system: NCI/ADR-RES ovarian
[4] = system: NCI-H226 lung
[5] = system: SF-268 CNS
[6] = system: ACHN renal
[7] = system: NCI-H23 lung
[8] = system: SK-MEL-5 melanoma
[9] = system: SK-OV-3 ovarian
[10] = system: SN12C renal
[11] = system: SNB-75 CNS
[12] = system: DU-145 prostate
[13] = system: SK-MEL-28 melanoma
[14] = system: MALME-3M melanoma
[15] = system: MCF7 breast
[16] = system: T-47D breast
[17] = system: KM12 colon
[18] = system: MDA-N
[19] = system: HOP-62 NSCLC
[20] = system: M14 melanoma
[21] = system: MOLT-4 leukemia
[22] = system: COLO 205 colon
[23] = system: HCT-116 colon
[24] = system: OVCAR-3 ovarian
[25] = system: HCT-15 colon
[26] = system: CCRF-CEM leukemia
[27] = system: SK-MEL-2 melanoma
[28] = system: OVCAR-4 ovarian
[29] = system: IGROV1 ovarian
[30] = system: K-562 leukemia
[31] = system: TK-10 renal
[32] = system: U251 CNS
[33] = system: NCI-H522 lung
[34] = system: SF-539 CNS
[35] = system: A549 NSCLC
[36] = system: UO-31 renal
[37] = system: LOX IMVI melanoma
[38] = system: 786-0 renal
[39] = system: UACC-257 melanoma
[40] = system: OVCAR-8 ovarian
[41] = system: MDA-MB-435
[42] = system: OVCAR-5 ovarian
[43] = system: CAKI-1 renal
[44] = system: RPMI-8226 leukemia
[45] = system: RXF 393 renal
[46] = system: SF-295 CNS
[47] = system: SW-620 colon
[48] = system: PC-3 prostate
[49] = system: UACC-62 melanoma
[50] = system: SNB-19 CNS
[51] = system: A498 renal
[52] = system: HT29 colon
[53] = system: HS 578T breast
[54] = system: NCI-H460 lung
[55] = system: HCC-2998 colon
[56] = system: MDA-MB-231 breast
[57] = system: SR leukemia
[58] = system: HOP-92 NSCLC
[59] = system: HL-60(TB) leukemia

Q: Which TGI [1] does the source give for `Cc1n(Cc2ccccc2)nc2sc(N)n[n+]12` here?
A: > 100 µM

Q: What about the TGI [2] of the same molecule?
A: > 100 µM

Q: What about the TGI [3] of the same molecule?
A: > 100 µM

Q: And the TGI [4]?
A: > 100 µM

Q: What about the TGI [5] of the same molecule?
A: > 100 µM

Q: What about the TGI [6] of the same molecule?
A: > 100 µM

Q: And the TGI [7]?
A: > 100 µM

Q: What about the TGI [8] of the same molecule?
A: > 100 µM

Q: What about the TGI [9] of the same molecule?
A: > 100 µM

Q: What about the TGI [10] of the same molecule?
A: > 100 µM

Q: And the TGI [11]?
A: > 100 µM

Q: And the TGI [12]?
A: > 100 µM

Q: And the TGI [13]?
A: > 100 µM

Q: And the TGI [14]?
A: > 100 µM

Q: What about the TGI [15] of the same molecule?
A: > 100 µM

Q: And the TGI [16]?
A: > 100 µM

Q: What about the TGI [17] of the same molecule?
A: > 100 µM

Q: And the TGI [18]?
A: > 100 µM

Q: And the TGI [19]?
A: > 100 µM

Q: What about the TGI [20] of the same molecule?
A: > 100 µM

Q: And the TGI [21]?
A: > 100 µM

Q: What about the TGI [22] of the same molecule?
A: > 100 µM

Q: And the TGI [23]?
A: > 100 µM

Q: What about the TGI [24] of the same molecule?
A: > 100 µM

Q: What about the TGI [25] of the same molecule?
A: > 100 µM

Q: And the TGI [26]?
A: > 100 µM

Q: What about the TGI [27] of the same molecule?
A: > 100 µM

Q: And the TGI [28]?
A: > 100 µM

Q: What about the TGI [29] of the same molecule?
A: > 100 µM

Q: What about the TGI [30] of the same molecule?
A: > 100 µM

Q: And the TGI [31]?
A: > 100 µM

Q: What about the TGI [32] of the same molecule?
A: > 100 µM

Q: And the TGI [33]?
A: > 100 µM

Q: What about the TGI [34] of the same molecule?
A: > 100 µM

Q: What about the TGI [35] of the same molecule?
A: > 100 µM

Q: And the TGI [36]?
A: > 100 µM

Q: What about the TGI [37] of the same molecule?
A: > 100 µM

Q: And the TGI [38]?
A: > 100 µM

Q: And the TGI [39]?
A: > 100 µM

Q: What about the TGI [40] of the same molecule?
A: > 100 µM

Q: What about the TGI [41] of the same molecule?
A: > 100 µM

Q: What about the TGI [42] of the same molecule?
A: > 100 µM

Q: And the TGI [43]?
A: > 100 µM

Q: What about the TGI [44] of the same molecule?
A: > 100 µM

Q: What about the TGI [45] of the same molecule?
A: > 100 µM

Q: And the TGI [46]?
A: > 100 µM

Q: What about the TGI [47] of the same molecule?
A: > 100 µM

Q: And the TGI [48]?
A: > 100 µM

Q: And the TGI [49]?
A: > 100 µM

Q: And the TGI [50]?
A: > 100 µM

Q: What about the TGI [51] of the same molecule?
A: > 100 µM

Q: What about the TGI [52] of the same molecule?
A: > 100 µM

Q: What about the TGI [53] of the same molecule?
A: > 100 µM

Q: Which results are given for `COC(=O)[C@H](Cc1ccc(O)cc1)NC(=O)[C@H](Cc1ccc(O)cc1)NC(=O)OC(C)(C)C` (Boc-Tyr-Tyr-OMe)?
A: TGI [1]: > 100 µM; TGI [2]: > 100 µM; TGI [3]: > 100 µM; TGI [4]: > 100 µM; TGI [54]: > 100 µM; TGI [5]: > 100 µM; TGI [6]: > 100 µM; TGI [7]: > 100 µM; TGI [8]: > 100 µM; TGI [9]: > 100 µM; TGI [11]: > 100 µM; TGI [12]: > 100 µM; TGI [55]: > 100 µM; TGI [14]: > 100 µM; TGI [15]: > 100 µM; TGI [17]: > 100 µM; TGI [18]: > 100 µM; TGI [19]: > 100 µM; TGI [20]: > 100 µM; TGI [22]: > 100 µM; TGI [23]: > 100 µM; TGI [24]: > 100 µM; TGI [25]: > 100 µM; TGI [29]: > 100 µM; TGI [31]: > 100 µM; TGI [33]: > 100 µM; TGI [34]: > 100 µM; TGI [35]: > 100 µM; TGI [36]: > 100 µM; TGI [37]: > 100 µM; TGI [38]: > 100 µM; TGI [39]: > 100 µM; TGI [40]: > 100 µM; TGI [56]: > 100 µM; TGI [42]: > 100 µM; TGI [43]: > 100 µM; TGI [45]: > 100 µM; TGI [46]: > 100 µM; TGI [48]: > 100 µM; TGI [49]: > 100 µM; TGI [50]: > 100 µM; TGI [52]: > 100 µM; TGI [53]: > 100 µM

Q: For `NS(=O)(=O)c1ccc(/C=C/c2ccc(O)cc2)cc1`, which TGI [1] is on record?
A: 69.8 µM

Q: What about the TGI [3] of the same molecule?
A: > 100 µM

Q: What about the GI50 [4] of the same molecule?
A: 11.1 µM

Q: What about the TGI [4] of the same molecule?
A: 33.1 µM

Q: What about the TGI [54] of the same molecule?
A: > 100 µM

Q: What about the GI50 [5] of the same molecule?
A: 31.5 µM

Q: And the TGI [5]?
A: > 100 µM

Q: And the GI50 [6]?
A: 2.28 µM

Q: What about the TGI [6] of the same molecule?
A: 7.75 µM

Q: What about the GI50 [7] of the same molecule?
A: 16.9 µM

Q: What about the TGI [7] of the same molecule?
A: 60.1 µM

Q: What about the TGI [8] of the same molecule?
A: 29 µM

Q: And the TGI [9]?
A: 59.5 µM

Q: And the TGI [10]?
A: > 100 µM

Q: What about the TGI [11] of the same molecule?
A: 78.6 µM

Q: What about the TGI [12] of the same molecule?
A: > 100 µM

Q: And the TGI [55]?
A: 40.6 µM

Q: What about the TGI [13] of the same molecule?
A: 78.2 µM

Q: What about the TGI [14] of the same molecule?
A: 78.1 µM

Q: And the TGI [15]?
A: > 100 µM

Q: What about the TGI [16] of the same molecule?
A: 71.6 µM

Q: What about the GI50 [17] of the same molecule?
A: 11.1 µM

Q: And the TGI [17]?
A: 30 µM

Q: What about the TGI [18] of the same molecule?
A: > 100 µM

Q: What about the TGI [19] of the same molecule?
A: 82.9 µM

Q: And the TGI [20]?
A: > 100 µM

Q: What about the GI50 [21] of the same molecule?
A: 22.6 µM

Q: What about the TGI [21] of the same molecule?
A: > 100 µM

Q: And the GI50 [57]?
A: 4.68 µM

Q: What about the TGI [57] of the same molecule?
A: 55.5 µM

Q: And the TGI [22]?
A: 35.3 µM

Q: What about the TGI [23] of the same molecule?
A: 85.6 µM

Q: What about the TGI [24] of the same molecule?
A: 54.5 µM

Q: What about the GI50 [25] of the same molecule?
A: 24.6 µM

Q: And the TGI [25]?
A: > 100 µM

Q: And the GI50 [26]?
A: 4.5 µM

Q: And the TGI [26]?
A: > 100 µM

Q: And the TGI [27]?
A: 60.3 µM

Q: What about the GI50 [28] of the same molecule?
A: 36.9 µM

Q: And the TGI [28]?
A: > 100 µM

Q: And the GI50 [29]?
A: 20.2 µM

Q: What about the TGI [29] of the same molecule?
A: 84.9 µM

Q: What about the GI50 [30] of the same molecule?
A: 24.9 µM

Q: What about the TGI [30] of the same molecule?
A: > 100 µM

Q: And the TGI [31]?
A: > 100 µM

Q: And the GI50 [32]?
A: 15 µM

Q: And the TGI [32]?
A: > 100 µM

Q: And the GI50 [33]?
A: 13.8 µM

Q: What about the TGI [33] of the same molecule?
A: 50.2 µM

Q: And the GI50 [34]?
A: 7.4 µM

Q: What about the TGI [34] of the same molecule?
A: 37.7 µM

Q: What about the GI50 [35] of the same molecule?
A: 13.9 µM

Q: And the TGI [35]?
A: 55.4 µM

Q: What about the TGI [36] of the same molecule?
A: 36.2 µM

Q: And the GI50 [37]?
A: 19.1 µM

Q: What about the TGI [37] of the same molecule?
A: > 100 µM

Q: And the TGI [38]?
A: 89.6 µM

Q: And the TGI [39]?
A: > 100 µM

Q: What about the GI50 [40] of the same molecule?
A: 4.81 µM

Q: And the TGI [40]?
A: 31.9 µM

Q: What about the TGI [56] of the same molecule?
A: 60.7 µM

Q: And the GI50 [41]?
A: 20.3 µM

Q: What about the TGI [41] of the same molecule?
A: > 100 µM

Q: And the TGI [42]?
A: > 100 µM

Q: And the GI50 [43]?
A: 5.59 µM

Q: What about the TGI [43] of the same molecule?
A: 32.6 µM

Q: What about the GI50 [44] of the same molecule?
A: 7.09 µM

Q: What about the TGI [44] of the same molecule?
A: 39.3 µM

Q: And the TGI [45]?
A: > 100 µM

Q: And the TGI [46]?
A: 65 µM

Q: And the TGI [58]?
A: 39.5 µM

Q: And the TGI [47]?
A: > 100 µM

Q: And the TGI [48]?
A: 97.7 µM

Q: And the GI50 [49]?
A: 3.4 µM

Q: And the TGI [49]?
A: 20.4 µM

Q: And the TGI [50]?
A: > 100 µM

Q: And the TGI [51]?
A: > 100 µM

Q: What about the GI50 [52] of the same molecule?
A: 17.8 µM

Q: What about the TGI [52] of the same molecule?
A: 35.1 µM

Q: And the GI50 [53]?
A: 28.9 µM

Q: And the TGI [53]?
A: > 100 µM

Q: And the GI50 [59]?
A: 4.35 µM

Q: And the TGI [59]?
A: > 100 µM
